Test system: peritoneal macrophages
Assay: In vivo foam cell formation assay
Parameters: species or system mouse
Conditions: Apoe-/- mice, WD 12 weeks, 30 mg/kg/day in the last 4 weeks, ORO staining
Protocol: FIGS. 2A-2M depict that FMRP deficiency enhances RCT while reducing foam cell formation in vivo. (Data are mean±SEM. Unpaired t-test with Welch's correction. * P≤0.05, ** P≤0.01, *** P≤0.001.) • 2A. Fmr1^+/+ and Fmr1^−/− mice were injected with AAV_PCSK9 and fed with 16 weeks of WD. Residential PM were stained with Oil Red O (ORO) and imaged (n=7; Scale bar=50 μm). • 2B. Apoe-/mice were fed with WD (12 weeks) and injected with vehicle (DMSO) or AMG-18 (30 mg/kg/day) in the last 4 weeks of WD. Residential PM were stained with ORO and imaged (n=5; Scale bar=50 μm). • 2C-2E. […] Macrophages were pre-loaded with fluorescently labeled cholesterol (16 hours) followed by incubation in efflux medium including APOA1 (25 μg/ml) or HDL (50 μg/ml) as acceptors for 6 hours. % Efflux was calculated as cholesterol signal in medium/cholesterol signal in medium and cell: Cholesterol efflux in (2F) Fmr1+/+ and Fmr1^−/− BMDM (n=4) and in (2G) BMDM that were pre-treated either with DMSO or AMG-18 (5 μM; 1 hour) (n=4). • 2H-2K. […] Protein lysates from macrophages used in FIG. 2C were analyzed by western blotting using specific antibodies for FMRP and β-Actin. • 2M. […]

For `Cc1ccc2c(NS(=O)(=O)c3ccccc3Cl)cccc2c1Oc1ncccc1-c1ccnc(N[C@H]2CCCNC2)n1` [AMG-18], the “foam cell formation in the peritoneum” value was “reduced”.
